Assay results published in the supplement of paper PMC11061612.

What was measured:
[1] = compound: COc1cccc2c1C(=O)c1c(O)c3c(c(O)c1C2=O)C[C@@](O)(C(=O)CO)C[C@@H]3O[C@H]1C[C@H](N)[C@H](O)[C@H](C)O1 [Doxorubicin]; conditions: max 1 µM
In short: (§1)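 Cancer cell lines were seeded in 1536-well plates in 7.5 μl DMEM/F12 or RPMI with 10% FBS, held 24 hours at 37°C and 5% CO2, then dosed for 72 hours (final DMSO typically 0.2%). Viability was read by CellTiter-Glo 2.0 luminescence and scaled between blank-well and DMSO-well means. The single-agent IC50 comes from dose responses fitted to a two-parameter logistic curve with a non-linear mixed effects model.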

[2] = compound: CC1(C)CCC(CN2CCN(c3ccc(C(=O)NS(=O)(=O)c4ccc(NCC5CCOCC5)c([N+](=O)[O-])c4)c(Oc4cnc5[nH]ccc5c4)c3)CC2)=C(c2ccc(Cl)cc2)C1 [Venetoclax]; conditions: max 1 µM
In short: as §1

[3] = compound: Cn1cnc2c(F)c(Nc3ccc(Br)cc3Cl)c(C(=O)NOCCO)cc21 [Selumetinib]; conditions: max 10 µM
In short: as §1

[4] = compound: Nc1ccn([C@@H]2O[C@H](CO)[C@@H](O)C2(F)F)c(=O)n1 [Gemcitabine]; conditions: max 0.3 µM
In short: as §1

[5] = compound: C1CN(CCC1(C(=O)N[C@@H](CCO)C2=CC=C(C=C2)Cl)N)C3=NC=NC4=C3C=CN4 [AZD5363]; conditions: max 10 µM
In short: as §1

[6] = compound: Cc1c2c(nn1C)CSCc1cc(n(C)n1)CSc1cc(c3ccccc3c1)OCCCc1c(C(=O)O)n(C)c3c-2c(Cl)ccc13 [AZD5991]; conditions: max 1 µM
In short: as §1

[7] = compound: Cc1nc(-c2cn3c(n2)-c2ccc(-c4cnn(C(C)(C)C(N)=O)c4)cc2OCC3)n(C(C)C)n1 [Taselisib]; conditions: max 10 µM
In short: as §1

[8] = compound: COc1cc2ncnc(Nc3ccc(F)c(Cl)c3)c2cc1OCCCN1CCOCC1 [Gefitinib]; conditions: max 10 µM
In short: as §1

[9] = compound: C[C@@H]1COCCN1C2=NC(=NC(=C2)C3(CC3)[S@](=N)(=O)C)C4=C5C=CNC5=NC=C4 [AZD6738]; conditions: max 10 µM
In short: as §1

[10] = compound: CN(CC[C@H](CSC1=CC=CC=C1)NC2=C(C=C(C=C2)S(=O)(=O)NC(=O)C3=CC=C(C=C3)N4CCC(CC4)[C@H](C5=CC=CC=C5C6=CC=C(C=C6)Cl)O)S(=O)(=O)C(F)(F)F)CCO [AZD4320]; conditions: max 1 µM
In short: as §1

[11] = compound: CC(=O)Nc1cccc(-n2c(=O)n(C3CC3)c(=O)c3c(Nc4ccc(I)cc4F)n(C)c(=O)c(C)c32)c1 [Trametinib]; conditions: max 1 µM
In short: as §1

[12] = compound: C[C@@H](Oc1cc(-c2cnn(C3CCNCC3)c2)cnc1N)c1c(Cl)ccc(F)c1Cl [Crizotinib]; conditions: max 10 µM
In short: as §1

[13] = compound: C[C@@H](c1ccc2nccn2c1)n1nnc2ncc(-c3cnn(C)c3)nc21 [Savolitinib]; conditions: max 1 µM
In short: as §1

[14] = compound: CC(C)n1c(=O)n(C)c2cnc3cc(F)c(-c4ccc(OCCCN5CCCCC5)nc4)cc3c21 [AZD1390]; conditions: max 0.3 µM
In short: as §1

[15] = compound: C[C@@H](Nc1cc(F)cc(F)c1)c1cc(C(=O)N(C)C)cc2c(=O)cc(N3CCOCC3)oc12 [AZD8186]; conditions: max 10 µM
In short: as §1

[16] = compound: COc1nnc2ccc(N3CCC(c4ccc(OCCN5CCN(C)C(=O)[C@H]5C)cc4)CC3)nn12 [AZD5153]; conditions: max 1 µM
In short: as §1

[17] = compound: Cc1cc2ncnn2cc1Nc1ncc2c(n1)n(C1CCOCC1)c(=O)n2C [AZD7648]; conditions: max 10 µM
In short: as §1

[18] = compound: COc1cc([C@@H]2c3cc4c(cc3[C@@H](O[C@@H]3O[C@@H]5CO[C@@H](C)O[C@H]5[C@H](O)[C@H]3O)[C@H]3COC(=O)[C@H]23)OCO4)cc(OC)c1O [Etoposide]; conditions: max 10 µM
In short: as §1

[19] = compound: CS(=O)(=O)CCNCc1ccc(-c2ccc3ncnc(Nc4ccc(OCc5cccc(F)c5)c(Cl)c4)c3c2)o1 [Lapatinib]; conditions: max 10 µM
In short: as §1

[20] = compound: O=C(Nc1ccc2[nH]nc(-c3ccncc3)c2c1)[C@@H]1CCN(CC(=O)N2CCN(c3ccc(-c4ncccn4)cc3)CC2)C1; conditions: max 5 µM
In short: as §1

[21] = compound: O=C(c1cc(Cc2n[nH]c(=O)c3ccccc23)ccc1F)N1CCN(C(=O)C2CC2)CC1 [Olaparib]; conditions: max 10 µM
In short: as §1

[22] = compound: CC1=C(C(=CC=C1)Cl)NC(=O)C2=CN=C(S2)NC3=CC(=NC(=N3)C)N4CCN(CC4)CCO [Dasatinib]; conditions: max 2 µM
In short: as §1

[23] = compound: CN(C)CCCOc1ccc(-c2ccc3ncc4c(c3c2)n(C2CCOCC2)c(=O)n4C)cn1 [AZD0156]; conditions: max 3 µM
In short: as §1

[24] = compound: COc1cccc(OCCCN)c1-c1cc(Nc2cnc(C#N)cn2)n[nH]1 [Prexasertib]; conditions: max 1 µM
In short: as §1

[25] = compound: O=c1[nH]cc(F)c(=O)[nH]1 [5-Fluorouracil]; conditions: max 20 µM
In short: as §1

[26] = compound: CC(=O)c1c(C)c2cnc(Nc3ccc(N4CCNCC4)cn3)nc2n(C2CCCC2)c1=O [Palbociclib]; conditions: max 10 µM
In short: as §1

[27] = compound: CCc1c2c(nc3ccc(O)cc13)-c1cc3c(c(=O)n1C2)COC(=O)[C@]3(O)CC [SN-38]; conditions: max 0.3 µM
In short: as §1

[28] = compound: C=CCn1c(=O)c2cnc(Nc3ccc(N4CCN(C)CC4)cc3)nc2n1-c1cccc(C(C)(C)O)n1 [AZD1775]; conditions: max 3 µM
In short: as §1

[29] = compound: C1CC(C1)(C(=O)[O-])C(=O)[O-].N.N.[Pt+2] [Carboplatin]; conditions: max 10 µM
In short: as §1

[30] = compound: NC1(c2ccc(-c3nc4ccn5c(=O)[nH]nc5c4cc3-c3ccccc3)cc2)CCC1 [MK-2206]; conditions: max 10 µM
In short: as §1

[31] = compound: CCN(CCO)CCCOc1ccc2c(Nc3cc(CC(=O)Nc4cccc(F)c4)[nH]n3)ncnc2c1 [AZD2811]; conditions: max 1 µM
In short: as §1

[32] = compound: CC(=O)O[C@H]1C(=O)[C@@]2(C)[C@H]([C@H](OC(=O)c3ccccc3)[C@]3(O)C[C@H](OC(=O)[C@H](O)[C@@H](NC(=O)c4ccccc4)c4ccccc4)C(C)=C1C3(C)C)[C@]1(OC(C)=O)CO[C@@H]1C[C@@H]2O [Paclitaxel]; conditions: max 3 µM
In short: as §1

[33] = compound: N#Cc1cnc(Nc2cc(NC[C@H]3CNCCO3)c(C(F)(F)F)cn2)cn1 [SRA737]; conditions: max 10 µM
In short: as §1

[34] = compound: COc1cc(Nc2ncc3c(n2)-c2ccc(Cl)cc2C(c2c(F)cccc2OC)=NC3)ccc1C(=O)O [Alisertib]; conditions: max 10 µM
In short: as §1

[35] = compound: CC1=CN2[C@@H](C1)C=NC3=CC(=C(C=C3C2=O)OC)OCCCCCOC4=C(C=C5C(=C4)N=C[C@@H]6CC(=CN6C5=O)C)OC [SG3199]; conditions: max 0.001 µM
In short: as §1

Cell Line	IC50, cell viability 72 h [1] [nM]	IC50, cell viability 72 h [2] [nM]	IC50, cell viability 72 h [3] [µM]	IC50, cell viability 72 h [4] [nM]	IC50, cell viability 72 h [5] [µM]	IC50, cell viability 72 h [6] [nM]	IC50, cell viability 72 h [7] [nM]	IC50, cell viability 72 h [8] [µM]	IC50, cell viability 72 h [9] [µM]	IC50, cell viability 72 h [10] [nM]	IC50, cell viability 72 h [11] [nM]	IC50, cell viability 72 h [12] [µM]	IC50, cell viability 72 h [13] [nM]	IC50, cell viability 72 h [14] [nM]	IC50, cell viability 72 h [15] [µM]	IC50, cell viability 72 h [16] [nM]	IC50, cell viability 72 h [17] [µM]	IC50, cell viability 72 h [18] [µM]	IC50, cell viability 72 h [19] [µM]	IC50, cell viability 72 h [20] [µM]	IC50, cell viability 72 h [21] [µM]	IC50, cell viability 72 h [22] [nM]	IC50, cell viability 72 h [23] [nM]	IC50, cell viability 72 h [24] [nM]	IC50, cell viability 72 h [25] [µM]	IC50, cell viability 72 h [26] [µM]	IC50, cell viability 72 h [27] [nM]	IC50, cell viability 72 h [28] [nM]	IC50, cell viability 72 h [29] [µM]	IC50, cell viability 72 h [30] [µM]	IC50, cell viability 72 h [31] [nM]	IC50, cell viability 72 h [32] [nM]	IC50, cell viability 72 h [33] [µM]	IC50, cell viability 72 h [34] [µM]	IC50, cell viability 72 h [35] [nM]
DB (B-Cell Non-Hodgkin's Lymphoma)	251	119	> 10	8.96	> 10	109	> 10000	> 10	> 10	143	> 1000	7.97	> 1000	> 300	> 10	210	> 10	3.69	> 10	> 5	> 10	> 2000	> 3000	210	> 20	7.68	4.52	526	> 10	> 10	537	5.71	> 10	3.88	> 1
DOV13 (Ovarian Carcinoma)	308	> 1000	> 10	11.8	> 10	> 1000	4650	> 10	2.13	464	> 1000	7.02	> 1000	> 300	> 10	650	> 10	2.73	> 10	> 5	> 10	165	> 3000	40.7	> 20	2.02	9.35	1110	> 10	> 10	980	31.7	> 10	1.93	> 1
DSH1 (Bladder Carcinoma)	306	> 1000	> 10	6.55	> 10	914	2240	0.792	4.62	> 1000	615	> 10	> 1000	> 300	> 10	242	> 10	7.62	0.457	2.06	> 10	> 2000	> 3000	153	> 20	> 10	26.8	1920	> 10	> 10	> 1000	146	> 10	> 10	> 1
ES7 (Ewing's Sarcoma)	38.8	> 1000	> 10	6.44	> 10	861	3020	> 10	2.44	204	> 1000	3.36	> 1000	> 300	2	289	> 10	0.257	> 10	> 5	3.82	> 2000	> 3000	33	12.3	3.87	1.13	1070	> 10	7.75	25.4	3.3	7.44	0.249	> 1
G-292-Clone-A141B1 (Osteosarcoma)	> 1000	> 1000	> 10	> 300	> 10	> 1000	1160	> 10	> 10	> 1000	> 1000	> 10	> 1000	> 300	> 10	> 1000	> 10	> 10	> 10	> 5	> 10	> 2000	> 3000	> 1000	> 20	> 10	> 300	> 3000	> 10	> 10	> 1000	> 3000	> 10	> 10	> 1
HT-29 (Colorectal Carcinoma)	> 1000	> 1000	1	161	> 10	> 1000	2220	> 10	2.39	> 1000	11.9	6.73	> 1000	> 300	> 10	155	> 10	> 10	> 10	0.436	> 10	> 2000	> 3000	28.3	> 20	> 10	64.7	310	> 10	> 10	> 1000	18	4.64	> 10	> 1
IHH-4 (Thyroid Gland Carcinoma)	275	> 1000	4.47	8.74	> 10	> 1000	> 10000	> 10	4.34	> 1000	85.3	7.34	> 1000	> 300	> 10	680	> 10	1.67	> 10	1.22	> 10	961	> 3000	99.4	3.43	> 10	5.41	414	> 10	> 10	> 1000	7	> 10	5.97	> 1
KARPAS-620 (Plasma Cell Myeloma)	> 1000	84.6	5.72	> 300	1.62	59.9	501	> 10	> 10	5.91	929	4.75	> 1000	> 300	> 10	167	> 10	> 10	> 10	> 5	> 10	> 2000	> 3000	80.4	> 20	> 10	> 300	1480	> 10	2.23	> 1000	6.98	> 10	10	> 1
KARPAS-1106P (B-Cell Non-Hodgkin's Lymphoma)	146	> 1000	> 10	18.3	> 10	127	462	> 10	3.96	> 1000	> 1000	4	> 1000	> 300	0.705	132	> 10	1.79	> 10	> 5	> 10	213	> 3000	11.2	> 20	> 10	3.05	495	> 10	> 10	> 1000	134	2.18	> 10	> 1
KATOIII (Gastric Carcinoma)	> 1000	> 1000	> 10	> 300	> 10	> 1000	> 10000	> 10	> 10	> 1000	893	> 10	> 1000	> 300	> 10	> 1000	> 10	> 10	> 10	4.46	> 10	> 2000	> 3000	420	14.3	> 10	> 300	> 3000	> 10	> 10	> 1000	> 3000	> 10	1.79	> 1
